Experimental data: patent US5393752A, “Methylpiperazinoazepine compounds, preparation and use thereof” (Therabel Research S.A./N.V., priority 1994, dated 1995)
Where two headings read alike, the source gives them in different places.

Legend:
[1] = Catalepsy Test (extrapyramidal effects); format: in vivo; settings: for dose at which catalepsy appears: catalepsy for doses above / cataleptic effect starting from; for cataleptic effect (in words): catalepsy test
Description: See in particular GRAY W. D., OSTERBERG A. C., RAUH C. E., Arch. Int. Pharmacodyn. 134, 198, 1961 and COSTALL B., OLLEY J. E., Neuropharmacology 10, 297, 1971.
This test is representative for the extrapyramidal effects present in numerous neuroleptics (unwanted secondary effect). The compounds of the invention cause very little catalepsy and seem therefore to be free from this unwanted secondary effect. However, some products have shown a slight catalepsy: […]

muscarinergic receptors = test system: muscarinergic receptors; design: species or system CFY rat; settings: 1.5 nM (3H) QNB, 25° C., pH 7.5, 60 minutes; non-specific binding with 10^-5 M atropin
[2] = target: T1, D2 dopaminergic receptors (Rattus norvegicus, UniProt P61169); assay: Affinity test, D2 dopaminergic receptors: (3H)-spiperone displacement in rat striatum membranes; design: species or system male Wistar rats; settings: read-out: Inhibition, % (binding of 3H-spiperone)
T1 construct: The striatum is dissected rapidly and homogenized; from tissue; host or cells: striatum of male Wistar rats, membrane preparation
T1 sequence (P61169 whole entry): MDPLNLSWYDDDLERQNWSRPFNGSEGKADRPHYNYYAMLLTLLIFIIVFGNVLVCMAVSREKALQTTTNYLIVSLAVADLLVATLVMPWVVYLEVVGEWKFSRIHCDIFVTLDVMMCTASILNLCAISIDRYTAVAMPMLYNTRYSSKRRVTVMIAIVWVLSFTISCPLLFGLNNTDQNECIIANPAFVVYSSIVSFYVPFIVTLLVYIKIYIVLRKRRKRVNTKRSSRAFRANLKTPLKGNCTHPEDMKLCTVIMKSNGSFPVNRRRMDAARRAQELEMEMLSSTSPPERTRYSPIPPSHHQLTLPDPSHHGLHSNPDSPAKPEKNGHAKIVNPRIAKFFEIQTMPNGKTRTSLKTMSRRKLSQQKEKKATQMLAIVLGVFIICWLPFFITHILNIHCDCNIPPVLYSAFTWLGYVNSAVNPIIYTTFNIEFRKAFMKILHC
Experimental: Characterization by (^3 H) spiperone displacement test.
The brain of male Wistar rats (200-250 g) is removed. The striatum is dissected rapidly and homogenized into 20 ml iced buffer ([…], pH=7.4, 25° C.) by means of a Teflon homogenizer. The homogenate is centrifuged at 4° C. at 10000 G during 10 minutes, the concentrate is washed two times with iced buffer and recentrifuged. The final concentrate is suspended into iced buffer (50 nM/HCl, pH=7.4) containing […], […] EDTA. After rehomogenization, the suspension is adjusted to 1 mg proteine per ml.
The binding of (^3 H)-spiperone is evaluated onto the following mixture: 200 μl membrane preparation (0.1-0.2 mg proteine), 100 μl (10^-6 M) test substance and […] buffer for a final volume of 1 ml. Control tubes, which are taken as a reference of the nonspecific binding, contain also 1 μM (+) butaclamol. The samples (in threefold) are then incubated with 0.5 nM (^3 H)spiperone at 25° C. for 60 minutes. This step is stopped by a quick vacuum filtration of the suspension through a glass-fiber filter GF/C. The filter is rinsed three times with 5 ml iced buffer.

[3] = Apomorphine Antagonism Test (in vivo), with locomotion and sedative effect; settings: examples: "At 20 mg/kg" heads the paragraph
Description: The following results are provided by way of example.

[4] = test substance 100 μl (10^-6 M) in final volume 1 ml, 0.5 nM (3H)spiperone, 25° C., 60 min, vs 1 μM (+)butaclamol
[5] = scale from clozapine (20 mg/g) + to haloperidol (0.63 mg/kg) +++++

| Structure (SMILES) | Inhibition, % (binding of 3H QNB) (muscarinergic receptors) [%] | inhibition [2, 4] [%] | Apomorphine antagonism, intensity of activity [3, 5] | further results |
| --- | --- | --- | --- | --- |
| CN1CCN(C2=Nc3cccnc3Sc3ccc(Cl)cc32)CC1.O=C(O)/C=C/C(=O)O [Example 3, 8-chloro-6-(4-methylpiperazin-1-yl)pyrido(2,3-b)benzo-1,4-thiazepine fumarate] | – | – | – | dose at which catalepsy appears [1]: above 40 mg/kg |
| CN1CCN(C2=Nc3cnccc3Sc3ccccc32)CC1 [Example 18, 10-(4-methylpiperazin-1-yl)pyrido(4,3-b)benzo-1,4-thiazepine] | 57.61 | 50.2 | – | – |
| CN1CCN(C2=Nc3ccccc3Nc3ccncc32)CC1 [Example 1, 11-(4-methylpiperazin-1-yl)-5H-pyrido(4,3-b)benzo-1,5-diazepine] | 4.48 | – | – | dose at which catalepsy appears [1]: above 40 mg/kg; inhibition [2]: 56.2% |
| CN1CCN(C2=Nc3cccnc3N(C=O)c3ccccc32)CC1 [Example 17, 11-formyl-6-(4-methylpiperazin-1-yl)-11H-pyrido(2,3-b)benzo-1,4-diazepine] | 43.38 | 22.8 | – | – |
| CN1CCN(C2=Nc3cccnc3Nc3cc(Cl)ccc32)CC1 [Example 12, 9-chloro-6-(4-methylpiperazin-1-yl)-11H-pyrido(2,3-b)benzo-1,4-diazepine] | – | – | + | – |
| O=C(CCCN1CCC(O)(c2ccc(Cl)cc2)CC1)c1ccc(F)cc1 [Haloperidol, reference compound] | – | – | – | Apomorphine antagonism, intensity of activity ([3]; scale from clozapine + to haloperidol (0.63 mg/kg) +++++): +++++ |
| Cc1ccc2c(c1)C(N1CCN(C)CC1)=Nc1cccnc1N2 [Example 11, 6-(4-methylpiperazin-1-yl)-8-methyl-11H-pyrido(2,3-b)benzo-1,4-diazepine] | 67.3 | 24.8 | – | – |
| CN1CCN(C2=Nc3cc(Cl)ccc3Oc3ncccc32)CC1.O=C(O)/C=C/C(=O)O [Example 5, 8-chloro-5-(4-methylpiperazin-1-yl)pyrido(2,3-b)benzo-1,5-oxazepine fumarate] | – | – | + | – |
| CN1CCN(C2=Nc3ccccc3[Se]c3ccccc32)CC1 [Example 19] | 78.31 | – | – | inhibition [2]: 26.7% |
| CN1CCN(C2=Nc3cccnc3Nc3ccc(F)cc32)CC1 [Example 13, 8-fluoro-6-(4-methylpiperazin-1-yl)-11H-pyrido(2,3-b)benzo-1,4-diazepine] | – | – | + | – |
| CN1CCN(C2=Nc3cc(Cl)ccc3Nc3ccccc32)CC1 [Clozapine, reference compound] | – | – | + | dose at which catalepsy appears [1]: ≥ 20 mg/kg; cataleptic effect (in words) [1]: week cataleptic effect |
| CN1CCN(C2=Nc3cccnc3Oc3ccccc32)CC1.O=C(O)/C=C/C(=O)O [Example 7, 6-(4-methylpiperazin-1-yl)pyrido(2,3-b)benzo-1,4-oxazepine fumarate] | – | – | + | – |
| CN1CCN(C2=Nc3ccccc3Oc3ncccc32)CC1.O=C(O)/C=C\C(=O)O [Example 4, 5-(4-methylpiperazin-1-yl)pyrido(2,3-b)benzo-1,5-oxazepine maleate] | – | – | – | dose at which catalepsy appears [1]: ≥ 20 mg/kg; cataleptic effect (in words) [1]: slight cataleptic effect |
| CN1CCN(C2=Nc3cccnc3Nc3ccc(Cl)cc32)CC1 [Example 10, 8-chloro-6-(4-methylpiperazin-1-yl)-11H-pyrido(2,3-b)benzo-1,4-diazepine] | 62.08 | 31.5 | – | – |
| CN1CCN(C2=Nc3ccccc3Sc3ccc(Cl)cc32)CC1 [Clothiapine, reference compound] | 38.05 | 94.6 | – | – |
